In patent US20250115669A1, “FGFR1/KLB Targeting Agonistic Antigen-Binding Proteins and Conjugates Thereof with GLP-1R Agonistic Peptides” (SANOFI, priority 2020, published 2025) one finds EC50 data, which are given here for 9 compounds.

Bridge positions count the residues as written; N and C are the ends. Ends that are not written are not given here. Peptide text beside a SMILES is read from it.

Common to all, as to format: cell-based
For one assay, the target named is T1, human GLP-1 receptor (Homo sapiens, UniProt P43220).
T1 construct: expressed in transfected cells; host or cells: PSC-HEK-293
T1 sequence (P43220 24-463): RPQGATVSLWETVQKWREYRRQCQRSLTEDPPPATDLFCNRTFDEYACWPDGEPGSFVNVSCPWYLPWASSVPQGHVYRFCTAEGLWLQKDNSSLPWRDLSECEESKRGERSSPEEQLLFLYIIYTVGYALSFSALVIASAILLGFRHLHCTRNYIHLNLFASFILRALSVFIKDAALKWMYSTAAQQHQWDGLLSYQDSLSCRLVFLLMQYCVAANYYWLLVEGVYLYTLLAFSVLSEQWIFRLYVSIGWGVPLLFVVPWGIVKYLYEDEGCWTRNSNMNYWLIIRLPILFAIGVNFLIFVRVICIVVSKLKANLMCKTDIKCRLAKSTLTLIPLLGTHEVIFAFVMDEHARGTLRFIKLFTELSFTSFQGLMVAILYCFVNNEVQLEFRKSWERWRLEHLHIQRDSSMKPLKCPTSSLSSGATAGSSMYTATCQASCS
Nature of the assay: HTRF cAMP assay in HEK-293 cells expressing human GLP-1 receptor. The protocol: (§1) Each vial contained 1.8 ml cells. The vials were slowly frozen to −80° C. in isopropanol, and then transferred in liquid nitrogen for storage.
(§2) Cells were resuspended in assay buffer (cell buffer plus 2 mM IBMX) and adjusted to a cell density of 1 million cells/ml.
(§3) For measurement of cAMP generation, 5 μl cells (final 5000 cells/well) and 5 μl of test compound were added to a 384-well plate, followed by incubation for 30 min at room temperature.
(§4) The cAMP generated was determined using a kit from Cisbio Corp. based on HTRF (Homogenous Time Resolved Fluorescence). The cAMP assay was performed according to manufacturer's instructions (Cisbio).
(In TR-FRET formats the signal depends on donor and acceptor labels being close together.)

The next assay deals with T2, human GIP receptor (Homo sapiens, UniProt P48546).
T2 construct: expressed in transfected cells; host or cells: PSC-HEK-293
T2 sequence (P48546 22-466): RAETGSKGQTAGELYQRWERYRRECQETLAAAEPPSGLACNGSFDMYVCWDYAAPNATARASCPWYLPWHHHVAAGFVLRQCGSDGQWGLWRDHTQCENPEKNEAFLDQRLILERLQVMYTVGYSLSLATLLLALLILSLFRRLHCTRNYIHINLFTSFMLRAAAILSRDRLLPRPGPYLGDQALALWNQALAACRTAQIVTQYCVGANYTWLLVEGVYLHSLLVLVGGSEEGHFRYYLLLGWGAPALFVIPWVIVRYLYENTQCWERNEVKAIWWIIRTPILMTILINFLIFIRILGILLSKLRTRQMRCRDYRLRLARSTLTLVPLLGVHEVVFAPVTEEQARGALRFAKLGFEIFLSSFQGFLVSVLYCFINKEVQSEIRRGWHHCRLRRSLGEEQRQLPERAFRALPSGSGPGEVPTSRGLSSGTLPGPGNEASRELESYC
In words: HTRF cAMP assay in HEK-293 cells expressing human GIP receptor. The settings on record: HEK-293 cells; read-out: HTRF cAMP EC50 Human GIPR. How it is done:
as §1, §2, §3, §4

Assay [1] addresses T3, human glucagon (GCG) receptor (Homo sapiens, UniProt P47871).
T3 construct: expressed in transfected cells; host or cells: PSC-HEK-293
In words: HTRF cAMP assay in HEK-293 cells expressing human glucagon receptor. The settings on record: HEK-293 cells; read-out: HTRF cAMP EC50 Human GCGR. The protocol: as §1, §2, §3, §4

By EC50 is commonly meant the concentration giving half of the maximal effect.

T3 sequence (P47871 26-477): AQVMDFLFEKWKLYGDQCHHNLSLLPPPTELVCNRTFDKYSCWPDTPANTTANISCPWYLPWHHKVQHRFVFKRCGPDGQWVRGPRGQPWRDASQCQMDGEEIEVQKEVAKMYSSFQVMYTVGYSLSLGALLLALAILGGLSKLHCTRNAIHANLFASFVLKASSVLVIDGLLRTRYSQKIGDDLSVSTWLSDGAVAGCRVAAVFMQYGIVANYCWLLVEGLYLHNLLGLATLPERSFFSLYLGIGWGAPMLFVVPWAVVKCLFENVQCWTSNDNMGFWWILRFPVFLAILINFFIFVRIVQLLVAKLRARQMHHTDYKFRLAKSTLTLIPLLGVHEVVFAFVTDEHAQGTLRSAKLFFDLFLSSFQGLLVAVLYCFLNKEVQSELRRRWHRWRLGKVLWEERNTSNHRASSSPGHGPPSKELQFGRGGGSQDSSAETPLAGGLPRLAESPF

On human GLP-1 receptor, `CC[C@H](C)[C@H](NC(=O)[C@H](CO)NC(=O)[C@H](CC(C)C)NC(=O)[C@H](CC(=O)O)NC(=O)[C@H](CO)NC(=O)[C@@H](NC(=O)[C@H](Cc1ccccc1)NC(=O)[C@@H](NC(=O)CNC(=O)[C@H](CCC(=O)O)NC(=O)CNC(=O)[C@@H](N)Cc1c[nH]cn1)[C@@H](C)O)[C@@H](C)O)C(=O)N[C@@H](CCC(N)=O)C(=O)N[C@@H](CC(C)C)C(=O)N[C@@H](CC(=O)O)C(=O)N[C@@H](CCC(=O)O)C(=O)N[C@@H](CCC(=O)O)C(=O)N[C@@H](C)C(=O)N[C@H](C(=O)N[C@@H](CCCNC(=N)N)C(=O)N[C@@H](CC(C)C)C(=O)N[C@@H](Cc1ccccc1)C(=O)N[C@H](C(=O)N[C@@H](CCC(=O)O)C(=O)N[C@@H](Cc1c[nH]c2ccccc12)C(=O)N[C@@H](CC(C)C)C(=O)N[C@@H](CC(C)C)C(=O)N[C@@H](C)C(=O)N[C@H](C(=O)NCC(=O)N1CCC[C@H]1C(=O)N[C@H](C(=O)N[C@@H](CO)C(=O)NCC(=O)N[C@@H](C)C(=O)N1CCC[C@H]1C(=O)N1CCC[C@H]1C(=O)N1CCC[C@H]1C(=O)N[C@@H](CO)C(N)=O)C(C)C)[C@@H](C)O)[C@@H](C)CC)C(C)C` [Ab P005] yielded an EC50 of 0.0031 nM.

Take `CC[C@H](C)[C@H](NC(=O)[C@H](CO)NC(=O)[C@H](CC(C)C)NC(=O)[C@H](CC(=O)O)NC(=O)[C@H](CO)NC(=O)[C@@H](NC(=O)[C@H](Cc1ccccc1)NC(=O)[C@@H](NC(=O)CNC(=O)[C@H](CCC(=O)O)NC(=O)CNC(=O)[C@@H](N)Cc1c[nH]cn1)[C@@H](C)O)[C@@H](C)O)C(=O)N[C@@H](CCC(N)=O)C(=O)N[C@@H](CC(C)C)C(=O)N[C@@H](CC(=O)O)C(=O)N[C@@H](CCC(=O)O)C(=O)N[C@@H](CCC(=O)O)C(=O)N[C@@H](C)C(=O)N[C@H](C(=O)N[C@@H](CCCNC(=N)N)C(=O)N[C@@H](CC(C)C)C(=O)N[C@@H](Cc1ccccc1)C(=O)N[C@H](C(=O)N[C@@H](CCC(=O)O)C(=O)N[C@@H](Cc1c[nH]c2ccccc12)C(=O)N[C@@H](CC(C)C)C(=O)N[C@@H](CCC(=O)O)C(=O)N[C@@H](C)C(=O)N[C@H](C(=O)NCC(=O)N1CCC[C@H]1C(=O)N[C@H](C(=O)N[C@@H](CO)C(=O)NCC(=O)N[C@@H](C)C(=O)N1CCC[C@H]1C(=O)N1CCC[C@H]1C(=O)N1CCC[C@H]1C(=O)N[C@@H](CO)C(N)=O)C(C)C)[C@@H](C)O)[C@@H](C)CC)C(C)C` [Ab P006] (H-HGEGTFTSDLSIQLDEEAVRLFIEWLEATGPVSGAPPPS-NH2): the EC50 at human GLP-1 receptor was 0.0147 nM.

In the case of `CC[C@H](C)[C@H](NC(=O)[C@H](Cc1ccccc1)NC(=O)[C@H](CC(C)C)NC(=O)[C@H](CCC(N)=O)NC(=O)[C@@H](NC(=O)[C@H](C)NC(=O)[C@H](CCC(=O)O)NC(=O)[C@H](CCC(=O)O)NC(=O)[C@H](CCC(=O)O)NC(=O)[C@H](CC(C)C)NC(=O)[C@H](CCC(N)=O)NC(=O)[C@H](CCCCN)NC(=O)[C@H](CO)NC(=O)[C@H](CC(C)C)NC(=O)[C@H](CC(=O)O)NC(=O)[C@H](CO)NC(=O)[C@@H](NC(=O)[C@H](Cc1ccccc1)NC(=O)[C@@H](NC(=O)CNC(=O)[C@H](CCC(=O)O)NC(=O)CNC(=O)[C@@H](N)Cc1c[nH]cn1)[C@@H](C)O)[C@@H](C)O)C(C)C)C(=O)N[C@@H](CCC(=O)O)C(=O)N[C@@H](Cc1c[nH]c2ccccc12)C(=O)N[C@@H](CC(C)C)C(=O)N[C@@H](CC(C)C)C(=O)N[C@@H](C)C(=O)N[C@H](C(=O)NCC(=O)N1CCC[C@H]1C(=O)N[C@@H](CO)C(=O)N[C@@H](CO)C(=O)NCC(=O)N[C@@H](C)C(=O)N1CCC[C@H]1C(=O)N1CCC[C@H]1C(=O)N1CCC[C@H]1C(=O)N[C@@H](CO)C(N)=O)[C@@H](C)O` [Ab P010] (H-HGEGTFTSDLSKQLEEEAVQLFIEWLLATGPSSGAPPPS-NH2), the EC50 on human GLP-1 receptor is 0.0035 nM.

Compound `CC[C@H](C)[C@H](NC(=O)[C@H](CO)NC(=O)[C@H](CC(C)C)NC(=O)[C@H](CC(=O)O)NC(=O)[C@H](CO)NC(=O)[C@@H](NC(=O)[C@H](Cc1ccccc1)NC(=O)[C@@H](NC(=O)CNC(=O)[C@H](CCC(=O)O)NC(=O)CNC(=O)[C@H](Cc1c[nH]cn1)NC(=O)CN)[C@@H](C)O)[C@@H](C)O)C(=O)N[C@@H](CCC(N)=O)C(=O)N[C@@H](CC(C)C)C(=O)N[C@@H](CCC(=O)O)C(=O)N[C@@H](CCC(=O)O)C(=O)N[C@@H](CCC(=O)O)C(=O)N[C@@H](C)C(=O)N[C@H](C(=O)N[C@@H](CCCNC(=N)N)C(=O)N[C@@H](CC(C)C)C(=O)N[C@@H](Cc1ccccc1)C(=O)N[C@H](C(=O)N[C@@H](CCC(=O)O)C(=O)N[C@@H](Cc1c[nH]c2ccccc12)C(=O)N[C@@H](CC(C)C)C(=O)N[C@@H](CC(C)C)C(=O)N[C@@H](C)C(=O)NCC(=O)NCC(=O)N1CCC[C@H]1C(=O)N[C@@H](CO)C(=O)N[C@@H](CO)C(=O)NCC(=O)N[C@@H](C)C(=O)N1CCC[C@H]1C(=O)N1CCC[C@H]1C(=O)N1CCC[C@H]1C(=O)N[C@@H](CO)C(N)=O)[C@@H](C)CC)C(C)C` [Ab P019] gave an EC50 at human GLP-1 receptor of 0.0276 nM.

`CC[C@H](C)[C@H](NC(=O)[C@H](CO)NC(=O)[C@H](CC(C)C)NC(=O)[C@H](CC(=O)O)NC(=O)[C@H](CO)NC(=O)[C@@H](NC(=O)[C@H](Cc1ccccc1)NC(=O)[C@@H](NC(=O)CNC(=O)[C@H](CCC(=O)O)NC(=O)CNC(=O)[C@H](Cc1c[nH]cn1)NC(=O)CN)[C@@H](C)O)[C@@H](C)O)C(=O)N[C@@H](CCC(N)=O)C(=O)N[C@@H](CC(C)C)C(=O)N[C@@H](CCC(=O)O)C(=O)N[C@@H](CCC(=O)O)C(=O)N[C@@H](CCC(=O)O)C(=O)N[C@@H](C)C(=O)N[C@H](C(=O)N[C@@H](CCCNC(=N)N)C(=O)N[C@@H](CC(C)C)C(=O)N[C@@H](Cc1ccccc1)C(=O)N[C@H](C(=O)N[C@@H](CCC(=O)O)C(=O)N[C@@H](Cc1c[nH]c2ccccc12)C(=O)N[C@@H](CC(C)C)C(=O)N[C@@H](CC(C)C)C(=O)N[C@@H](C)C(=O)N[C@H](C(=O)NCC(=O)N1CCC[C@H]1C(=O)N[C@@H](CO)C(=O)N[C@@H](CO)C(=O)NCC(=O)N[C@@H](C)C(=O)N1CCC[C@H]1C(=O)N1CCC[C@H]1C(=O)N1CCC[C@H]1C(=O)N[C@@H](CO)C(N)=O)[C@@H](C)O)[C@@H](C)CC)C(C)C` [Ab P020]: the EC50 on human GLP-1 receptor was found to be 0.206 nM.

As to `CC[C@H](C)[C@H](NC(=O)[C@H](CC(C)C)NC(=O)[C@H](Cc1c[nH]c2ccccc12)NC(=O)[C@H](CCC(=O)O)NC(=O)[C@@H](NC(=O)[C@H](Cc1ccccc1)NC(=O)[C@H](CCC(=O)O)NC(=O)[C@H](Cc1c[nH]cn1)NC(=O)[C@H](CCC(N)=O)NC(=O)[C@H](C)NC(=O)[C@H](CCCNC(=N)N)NC(=O)[C@H](CCCCN)NC(=O)[C@H](CCC(=O)O)NC(=O)[C@H](CC(C)C)NC(=O)[C@H](CC(C)C)NC(=O)[C@H](CCC(=O)O)NC(=O)[C@H](CO)NC(=O)[C@H](CC(C)C)NC(=O)[C@H](CC(=O)O)NC(=O)[C@H](CO)NC(=O)[C@@H](NC(=O)[C@H](Cc1ccccc1)NC(=O)[C@@H](NC(=O)CNC(=O)[C@H](CCC(=O)O)NC(=O)CNC(=O)[C@@H](N)Cc1c[nH]cn1)[C@@H](C)O)[C@@H](C)O)[C@@H](C)CC)C(=O)N[C@@H](C)C(=O)NCC(=O)NCC(=O)N1CCC[C@H]1C(=O)N[C@@H](CO)C(=O)N[C@@H](CO)C(=O)NCC(=O)N[C@@H](CCCCN)C(=O)N1CCC[C@H]1C(=O)N1CCC[C@H]1C(=O)N1CCC[C@H]1C(=O)N[C@@H](CCCCN)C(N)=O` [Ab P031] (H-HGEGTFTSDLSELLEKRAQHEFIEWLIAGGPSSGKPPPK-NH2; N-terminus assumed), the EC50 on human GIP receptor is 0.271 nM; in assay [1], > 10 nM.

On to `CC[C@H](C)[C@H](NC(=O)[C@H](Cc1ccccc1)NC(=O)[C@H](CCC(=O)O)NC(=O)[C@H](Cc1c[nH]cn1)NC(=O)[C@H](CCC(N)=O)NC(=O)[C@H](C)NC(=O)[C@H](CCCNC(=N)N)NC(=O)[C@H](CCCCN)NC(=O)[C@H](CCC(=O)O)NC(=O)[C@H](CC(C)C)NC(=O)[C@H](CC(C)C)NC(=O)[C@H](CCC(=O)O)NC(=O)[C@H](CO)NC(=O)[C@H](CC(C)C)NC(=O)[C@H](CC(=O)O)NC(=O)[C@H](CO)NC(=O)[C@@H](NC(=O)[C@H](Cc1ccccc1)NC(=O)[C@@H](NC(=O)CNC(=O)[C@H](CCC(=O)O)NC(=O)CNC(=O)[C@@H](N)Cc1c[nH]cn1)[C@@H](C)O)[C@@H](C)O)C(=O)N[C@@H](CCC(=O)O)C(=O)N[C@@H](Cc1c[nH]c2ccccc12)C(=O)N[C@@H](CC(C)C)C(=O)N[C@@H](CCCCN)C(=O)N[C@@H](C)C(=O)NCC(=O)NCC(=O)N1CCC[C@H]1C(=O)N[C@@H](CO)C(=O)N[C@@H](CO)C(=O)NCC(=O)N[C@@H](CCCCN)C(=O)N1CCC[C@H]1C(=O)N1CCC[C@H]1C(=O)N1CCC[C@H]1C(=O)N[C@@H](CCCCN)C(N)=O` [Ab P032] (H-HGEGTFTSDLSELLEKRAQHEFIEWLKAGGPSSGKPPPK-NH2; N-terminus assumed), for which the EC50 at human GIP receptor is 2.37 nM; in assay [1], > 10 nM.

As for “HGEGTFTSDLSILCEKRAVHEFIEWLIAGGPSSGKPPPKPGC-NH2 (disulfide 14-42) [Ab P033]”, the EC50 on human GIP receptor was 0.024 nM; in assay [1], > 10 nM.

Take “HGEGTFTSDLSILCEKRAVHEFIEWLKAGGPSSGKPPPKPGC-NH2 (disulfide 14-42) [Ab P034]”: the EC50 was 0.257 nM on human GIP receptor and > 10 nM in assay [1].
